Test results taken from patent US20110045101A1, “FUNGICIDAL SUBSTITUTED AZOLES” (E.I. Du Pont De Nemours and Company, priority 2009, published 2011).
Marks after values point to notes of the source that are not given here.

How the values were obtained:
Format in all cases: in vivo
Alternaria solani = test: Test D: tomato early blight, sprayed the day before inoculation, visual disease rating; details: 100 = 100% disease control; for pest or weed control at 200 ppm: Alternaria solani, 168 h
Outline: (§1)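 Plants received a run-off spray at 200 ppm (equivalent to 500 g/ha) or, for starred values, 40 ppm. Formulation used acetone at 3% of volume in a 50/50 acetone/water mix carrying 250 ppm Trem® 014.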

Septoria tritici = test: Test G: wheat leaf blotch on wheat seedlings, sprayed the day before inoculation, visual disease rating; details: 100 = 100% disease control; for pest or weed control at 200 ppm: Zymoseptoria tritici, 504 h
Outline: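 Compounds dissolved in acetone (3% of final volume), then suspended in 50/50 acetone/water with 250 ppm Trem® 014 and sprayed to run-off on seedlings at 200 ppm (≈500 g/ha) or 40 ppm where marked. Inoculation with spores followed next day; visual rating after 48 h saturated at 24° C plus 19 days at 20° C.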

[1] = tested on: Erysiphe graminis f. sp. tritici; test: Test J: wheat powdery mildew on wheat seedlings, sprayed the day before inoculation, visual disease rating; details: 100 = 100% disease control; for pest or weed control at 200 ppm: Blumeria graminis, 168 h
Outline: as §1

Botrytis cinerea = test: Test C: tomato Botrytis on tomato seedlings, sprayed the day before inoculation, visual disease rating; details: 100 = 100% disease control; for pest or weed control at 200 ppm: Botrytis cinerea, 120 h
Outline: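 Rate: 200 ppm sprayed to run-off, corresponding to 500 g/ha; flagged values used 40 ppm. Vehicle was aqueous acetone (1:1) plus 250 ppm surfactant, compounds predissolved in acetone at 3% of volume. Plants were tomato seedlings.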

[2] = tested on: Puccinia recondita f. sp. tritici; test: Test I: wheat leaf rust on wheat seedlings, sprayed the day before inoculation, visual disease rating; details: 100 = 100% disease control; for pest or weed control at 200 ppm: Puccinia recondita, 168 h
Outline: as §1

[3] = tested on: Puccinia recondita f. sp. tritici; test: Test H: wheat leaf rust, test suspension sprayed after inoculation of wheat seedlings, visual disease rating; details: 100 = 100% disease control; for pest or weed control at 200 ppm: Puccinia recondita, 96 h
Outline: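 Wheat seedlings inoculated with P. recondita spores, held 24 h saturated at 20 °C, then 2 days in growth chamber at 20 °C; compound suspension (acetone/water with Trem 014) sprayed to run-off afterwards. Rated visually; 200 ppm (≈500 g/ha) unless marked *, which denotes 40 ppm.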

Septoria nodorum = test: Test F: wheat glume blotch on wheat seedlings, sprayed the day before inoculation, visual disease rating; details: 100 = 100% disease control; for pest or weed control at 200 ppm: Parastagonospora nodorum, 264 h
Outline: as §1

[4] = 200 ppm, 0 = no control relative to controls
[5] = 40 ppm (marked *), 0 = no control

Row | SMILES | Test D disease control rating (Alternaria solani; [4]) [%] | Test G disease control rating (Septoria tritici; [4]) [%] | Test J disease control rating [1, 4] [%] | Test C disease control rating (Botrytis cinerea; [4]) [%] | Test I disease control rating [2, 4] [%] | Test H disease control rating [3, 4] [%] | Test F disease control rating (Septoria nodorum; [4]) [%] | also measured
1 | N#CCc1nc(Br)c(-c2c(F)cccc2F)n1-c1ccc(Cl)cc1 [Compound 509, 4-bromo-1-(4-chlorophenyl)-5-(2,6-difluorophenyl)-1H-imidazole-2-acetonitrile] | – | – | – | – | – | – | – | pest or weed control at 200 ppm (Alternaria solani; [4]): 77%; pest or weed control at 200 ppm (Septoria tritici; [4]): 92%; pest or weed control at 200 ppm [1, 4]: 78%; pest or weed control at 200 ppm (Botrytis cinerea; [4]): 98%; pest or weed control at 200 ppm [2, 4]: 85%; pest or weed control at 200 ppm [3, 4]: 9%; pest or weed control at 200 ppm (Septoria nodorum; [4]): 0%
2 | Fc1ccc(-n2c(Cl)nc(Cl)c2-c2ccc(Cl)c(F)c2)c(Cl)c1 [compound 302] | 100 | 94 | 100 | 100 | 98 | 17 | 0 | –
3 | COc1cc(OC)cc(-n2c(Cc3c(F)cc(F)cc3F)cnc2C)c1 [compound 533] | 0 | 49 | 82 | 0 | 92 | 15 | 0 | –
4 | COc1cc(F)c(-c2c(Cl)nc(C)n2-c2ccc(F)c(F)c2)c(F)c1 [compound 499] | 100 | 93 | 100 | 99 | 100 | 100 | 100 | –
5 | Cc1ccc(-n2c(Br)nc(Br)c2-c2c(F)ccc(F)c2Cl)cc1 [compound 460] | – | – | – | – | – | – | – | Test D disease control rating (Alternaria solani; 40 ppm (marked *)): 85* %; Test G disease control rating (Septoria tritici; 40 ppm (marked *)): 97* %; Test J disease control rating ([1]; 40 ppm (marked *)): 96* %; Test C disease control rating (Botrytis cinerea; 40 ppm (marked *)): 99* %; Test I disease control rating ([2]; 40 ppm (marked *)): 93* %; Test H disease control rating ([3]; 40 ppm (marked *)): 0* %; Test F disease control rating (Septoria nodorum; 40 ppm (marked *)): 0* %
6 | Cc1nc(Cl)c(Cc2c(F)cc(F)cc2F)n1-c1ccc(Cl)cc1 [compound 531] | 0 | 99 | 95 | 100 | 99 | 41 | 0 | –
7 | COc1ccc(-c2c(Cl)nc(Br)n2-c2ccc(F)cc2)c(Cl)c1 [compound 725] | 99 | 99 | 98 | 100 | 91 | 15 | 73 | –
8 | COc1cc(F)c(-n2c(Cl)nc(C)c2-c2ccc(Cl)cc2)c(F)c1 [compound 396] | – | – | – | – | – | – | – | Test D disease control rating (Alternaria solani; [5]): 100* %; Test G disease control rating (Septoria tritici; [5]): 93* %; Test J disease control rating [1, 5]: 99* %; Test C disease control rating (Botrytis cinerea; [5]): 100* %; Test I disease control rating [2, 5]: 100* %; Test H disease control rating [3, 5]: 0* %; Test F disease control rating (Septoria nodorum; [5]): 99* %
9 | COc1ccc(F)c(-c2c(Cl)nc(Cl)n2-c2ccc(Cl)c(C)c2)c1F [compound 399] | 99 | 96 | 100 | 100 | 82 | 0 | 82 | –
10 | CSc1sc(-c2c(Br)nc(Br)n2-c2ccc(Cl)cc2)cc1Br [compound 408] | – | – | – | – | – | – | – | Test D disease control rating (Alternaria solani; [5]): 0* %; Test G disease control rating (Septoria tritici; [5]): 3* %; Test J disease control rating [1, 5]: 0* %; Test C disease control rating (Botrytis cinerea; [5]): 0* %; Test I disease control rating [2, 5]: 0* %; Test H disease control rating [3, 5]: 0* %; Test F disease control rating (Septoria nodorum; [5]): 0* %
11 | Fc1cc(F)c(-c2c(Cl)nc(Cl)n2-c2cccc(OC(F)(F)F)c2)c(F)c1 [compound 599] | 0 | 9 | 0 | 26 | 0 | 0 | 0 | –
12 | COc1ccc(F)c(-c2c(Cl)nc(Br)n2-c2ccc(Cl)cc2)c1Cl [compound 501] | 99 | 95 | 99 | 98 | 67 | 0 | 98 | –
13 | COc1cc(F)c(-c2c(C)nc(Cl)n2-c2ccc(OC)nc2)c(F)c1 [compound 737] | 100 | 100 | 100 | 100 | 100 | 100 | 100 | –
14 | COc1cc(F)c(-c2c(Cl)nc(Cl)n2-c2ccc(Cl)nc2Cl)c(F)c1 [compound 674] | 93 | 99 | 94 | 99 | 100 | 98 | 98 | –
15 | COc1cc(F)c(-c2c(Cl)nc(Cl)n2-c2ccc(OC(F)F)cc2)c(F)c1 [compound 566] | 100 | 97 | 100 | 100 | 100 | 97 | 100 | –
16 | Cc1ncc(Cc2ccc(F)cc2F)n1-c1ccc(Cl)cc1 [compound 403] | 0 | 97 | 86 | 99 | 77 | 0 | 0 | –
17 | Cc1nc(Cl)c(-c2c(F)ccc(C#N)c2F)n1-c1ccc(Cl)cc1 [Compound 430, 3-[4-chloro-1-(4-chlorophenyl)-2-methyl-1H-imidazol-5-yl]-2,4-difluorobenzonitrile] | – | – | – | – | – | – | – | pest or weed control at 200 ppm (Alternaria solani; [4]): 100%; pest or weed control at 200 ppm (Septoria tritici; [4]): 100%; pest or weed control at 200 ppm [1, 4]: 100%; pest or weed control at 200 ppm (Botrytis cinerea; [4]): 100%; pest or weed control at 200 ppm [2, 4]: 100%; pest or weed control at 200 ppm [3, 4]: 0%; pest or weed control at 200 ppm (Septoria nodorum; [4]): 100%
18 | COc1ccc(F)c(-c2c(Cl)nc(C)n2-c2ccc(C)cc2)c1F [compound 333] | – | – | – | – | – | – | – | Test D disease control rating (Alternaria solani; [5]): 100* %; Test G disease control rating (Septoria tritici; [5]): 91* %; Test J disease control rating [1, 5]: 100* %; Test C disease control rating (Botrytis cinerea; [5]): 100* %; Test I disease control rating [2, 5]: 100* %; Test H disease control rating [3, 5]: 0* %; Test F disease control rating (Septoria nodorum; [5]): 99* %
19 | Cc1ncn(-c2ccc(Cl)c(F)c2)c1-c1ccnc(Br)c1 [compound 345] | 0 | 27 | 0 | 64 | 0 | 0 | 0 | –
20 | Cc1nc(Br)c(-c2c(F)cccc2F)n1-c1ccc2c(c1)OCCO2 [compound 602] | – | – | – | – | – | – | – | Test D disease control rating (Alternaria solani; 40 ppm (marked *)): 91* %; Test G disease control rating (Septoria tritici; 40 ppm (marked *)): 99* %; Test J disease control rating ([1]; 40 ppm (marked *)): 81* %; Test C disease control rating (Botrytis cinerea; 40 ppm (marked *)): 99* %; Test I disease control rating ([2]; 40 ppm (marked *)): 98* %; Test H disease control rating ([3]; 40 ppm (marked *)): 0* %; Test F disease control rating (Septoria nodorum; 40 ppm (marked *)): 0* %
21 | CN(C)c1ccc(-n2cnc(N(C)C)c2-c2c(F)cccc2F)cc1 [compound 634] | – | – | – | – | – | – | – | Test D disease control rating (Alternaria solani; 40 ppm (marked *)): 0* %; Test G disease control rating (Septoria tritici; 40 ppm (marked *)): 0* %; Test J disease control rating ([1]; 40 ppm (marked *)): 0* %; Test C disease control rating (Botrytis cinerea; 40 ppm (marked *)): 0* %; Test I disease control rating ([2]; 40 ppm (marked *)): 0* %; Test H disease control rating ([3]; 40 ppm (marked *)): 0* %; Test F disease control rating (Septoria nodorum; 40 ppm (marked *)): 0* %
22 | COc1cc(F)c(-c2c(Cl)nc(Br)n2Cc2ccc(Cl)cc2)c(F)c1 [compound 283] | – | – | – | – | – | – | – | Test D disease control rating (Alternaria solani; 200 ppm, 0 = no control): 98%; Test G disease control rating (Septoria tritici; 200 ppm, 0 = no control): 93%; Test J disease control rating ([1]; 200 ppm, 0 = no control): 99%; Test C disease control rating (Botrytis cinerea; 200 ppm, 0 = no control): 100%; Test I disease control rating ([2]; 200 ppm, 0 = no control): 93%; Test H disease control rating ([3]; 200 ppm, 0 = no control): 0%; Test F disease control rating (Septoria nodorum; 200 ppm, 0 = no control): 0%
23 | COc1ccc(F)c(-c2c(Cl)nc(C)n2-c2ccc(Cl)c(F)c2)c1F [compound 393] | 100 | 95 | 100 | 99 | 99 | 79 | 99 | –
